The target in assay [1] is D(2) dopamine receptor (Rattus norvegicus, UniProt P61169). Put plainly: Binding affinity at native Dopamine receptor D2 in rat striatum by [3H]spiperone displacement. In kind it is tissue-based.
In assay [2] the target is T1, Adrenergic receptor alpha-2 (Rattus norvegicus, UniProt P22086+P19328+P22909).
T1 sequence (P22086 whole entry): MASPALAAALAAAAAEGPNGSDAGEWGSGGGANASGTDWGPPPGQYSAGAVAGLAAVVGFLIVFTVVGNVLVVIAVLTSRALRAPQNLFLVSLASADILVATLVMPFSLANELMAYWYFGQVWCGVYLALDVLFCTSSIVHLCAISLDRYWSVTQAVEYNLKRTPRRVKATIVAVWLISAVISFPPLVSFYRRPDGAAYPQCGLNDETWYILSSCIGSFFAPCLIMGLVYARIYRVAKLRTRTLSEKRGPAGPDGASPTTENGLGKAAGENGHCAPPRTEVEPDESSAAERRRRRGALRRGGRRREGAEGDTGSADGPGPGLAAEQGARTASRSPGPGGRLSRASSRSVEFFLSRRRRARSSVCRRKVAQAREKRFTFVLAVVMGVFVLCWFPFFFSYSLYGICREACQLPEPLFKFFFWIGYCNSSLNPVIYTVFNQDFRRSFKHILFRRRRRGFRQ
T1 sequence (P19328 whole entry): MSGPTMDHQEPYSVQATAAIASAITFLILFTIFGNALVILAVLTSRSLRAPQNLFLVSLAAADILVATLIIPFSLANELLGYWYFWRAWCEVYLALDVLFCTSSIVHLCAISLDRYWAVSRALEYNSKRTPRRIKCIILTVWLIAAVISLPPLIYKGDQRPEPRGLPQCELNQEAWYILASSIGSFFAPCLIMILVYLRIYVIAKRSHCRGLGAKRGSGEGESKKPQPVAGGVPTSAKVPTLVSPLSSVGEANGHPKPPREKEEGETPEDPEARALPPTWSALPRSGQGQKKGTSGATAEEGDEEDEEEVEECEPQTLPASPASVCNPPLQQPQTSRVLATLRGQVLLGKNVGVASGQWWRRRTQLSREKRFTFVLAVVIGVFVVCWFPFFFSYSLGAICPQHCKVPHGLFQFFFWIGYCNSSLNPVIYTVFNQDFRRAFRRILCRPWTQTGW
T1 sequence (P22909 whole entry): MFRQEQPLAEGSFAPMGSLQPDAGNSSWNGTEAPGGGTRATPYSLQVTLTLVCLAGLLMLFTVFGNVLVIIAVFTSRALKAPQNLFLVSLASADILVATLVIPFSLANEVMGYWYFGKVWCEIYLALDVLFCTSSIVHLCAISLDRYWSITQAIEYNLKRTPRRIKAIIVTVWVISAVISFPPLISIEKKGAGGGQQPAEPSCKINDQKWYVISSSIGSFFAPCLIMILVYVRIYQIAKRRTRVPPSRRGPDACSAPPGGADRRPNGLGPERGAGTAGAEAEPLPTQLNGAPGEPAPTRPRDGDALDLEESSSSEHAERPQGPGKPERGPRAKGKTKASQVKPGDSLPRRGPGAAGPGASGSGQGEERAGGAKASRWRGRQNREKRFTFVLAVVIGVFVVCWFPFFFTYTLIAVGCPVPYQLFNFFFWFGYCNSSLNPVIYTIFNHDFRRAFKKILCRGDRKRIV
The assay is described as follows: Antagonism of the clonidine-induced depression of twitch responses of rat isolated prostatic vas deferens.

Assay [3] deals with T2, Alpha-1A adrenergic receptor (Rattus norvegicus, UniProt P43140).
T2 sequence (P43140 whole entry): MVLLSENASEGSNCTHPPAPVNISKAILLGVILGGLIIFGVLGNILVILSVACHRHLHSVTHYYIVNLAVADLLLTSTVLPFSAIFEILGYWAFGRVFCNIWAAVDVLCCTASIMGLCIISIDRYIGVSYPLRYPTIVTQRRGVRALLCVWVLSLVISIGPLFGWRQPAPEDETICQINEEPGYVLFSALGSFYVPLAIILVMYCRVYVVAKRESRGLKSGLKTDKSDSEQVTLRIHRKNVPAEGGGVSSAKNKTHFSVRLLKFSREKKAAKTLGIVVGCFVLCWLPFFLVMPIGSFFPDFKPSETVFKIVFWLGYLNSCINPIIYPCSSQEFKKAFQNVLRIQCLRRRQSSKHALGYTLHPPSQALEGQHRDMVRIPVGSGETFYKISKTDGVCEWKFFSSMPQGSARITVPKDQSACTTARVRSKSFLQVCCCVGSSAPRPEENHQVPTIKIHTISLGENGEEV
The assay is described as follows: Antagonism of the norepinephrine induced contraction of rat isolated prostatic vas deferens. Particulars: read-out: pA2 (converted). It is filed as functional.

In assay [4] the target is T3, 5-hydroxytryptamine receptor 1A (Homo sapiens, UniProt P08908).
T3 sequence (P08908 whole entry): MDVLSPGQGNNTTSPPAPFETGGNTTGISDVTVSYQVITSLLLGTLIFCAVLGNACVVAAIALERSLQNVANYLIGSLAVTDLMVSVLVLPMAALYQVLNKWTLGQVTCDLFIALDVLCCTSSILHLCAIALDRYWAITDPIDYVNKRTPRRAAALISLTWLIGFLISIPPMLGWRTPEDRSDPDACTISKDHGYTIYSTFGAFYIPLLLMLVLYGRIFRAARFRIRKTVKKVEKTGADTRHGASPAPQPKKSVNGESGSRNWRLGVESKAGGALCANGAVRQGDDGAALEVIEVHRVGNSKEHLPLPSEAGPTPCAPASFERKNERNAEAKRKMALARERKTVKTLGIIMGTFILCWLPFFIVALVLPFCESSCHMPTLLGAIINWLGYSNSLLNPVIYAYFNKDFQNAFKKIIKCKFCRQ
The assay is described as follows: Binding affinity at human cloned 5-hydroxytryptamine 1A receptor expressed in HeLa cells by [3H]8-hydroxy-2-(di-n-propylamino)tetraline displacement. In kind it is cell-based.

The target in assay [5] is T4, Alpha-1A adrenergic receptor (Homo sapiens, UniProt P35348).
T4 sequence (P35348 whole entry): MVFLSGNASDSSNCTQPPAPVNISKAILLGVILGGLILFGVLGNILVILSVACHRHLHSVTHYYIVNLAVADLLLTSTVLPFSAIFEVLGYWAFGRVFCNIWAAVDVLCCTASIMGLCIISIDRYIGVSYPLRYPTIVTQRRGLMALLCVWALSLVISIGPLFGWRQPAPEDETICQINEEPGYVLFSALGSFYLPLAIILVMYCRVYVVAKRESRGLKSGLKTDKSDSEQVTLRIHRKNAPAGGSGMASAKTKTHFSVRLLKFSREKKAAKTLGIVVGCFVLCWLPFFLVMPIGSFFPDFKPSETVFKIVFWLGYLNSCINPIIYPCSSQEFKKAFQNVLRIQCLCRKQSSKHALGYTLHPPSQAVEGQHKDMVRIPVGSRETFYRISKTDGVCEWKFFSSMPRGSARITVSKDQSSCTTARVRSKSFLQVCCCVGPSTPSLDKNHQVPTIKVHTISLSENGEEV
The assay is described as follows: Binding affinity at human cloned Alpha-1A adrenergic receptor in chinese hamster ovary cells by [3H]-prazosin displacement. It is filed as cell-based, CHO.

Chain of D(2) dopamine receptor (P61169 whole entry): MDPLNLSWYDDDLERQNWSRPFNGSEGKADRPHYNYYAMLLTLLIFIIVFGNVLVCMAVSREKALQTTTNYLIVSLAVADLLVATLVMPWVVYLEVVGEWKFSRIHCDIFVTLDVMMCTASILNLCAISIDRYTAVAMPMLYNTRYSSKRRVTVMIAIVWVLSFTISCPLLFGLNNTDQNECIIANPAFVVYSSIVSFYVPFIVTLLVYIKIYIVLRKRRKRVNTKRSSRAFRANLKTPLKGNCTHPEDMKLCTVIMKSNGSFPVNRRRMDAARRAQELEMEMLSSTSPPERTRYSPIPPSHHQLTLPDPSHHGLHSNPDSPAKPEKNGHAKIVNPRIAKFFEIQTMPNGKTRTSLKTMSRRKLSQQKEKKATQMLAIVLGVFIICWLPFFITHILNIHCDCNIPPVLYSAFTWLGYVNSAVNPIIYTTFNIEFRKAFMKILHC

For orientation: Ki means a measure of affinity in units of concentration, obtained from inhibition or displacement. Read a high Ki as lower affinity. A word on the pA2: it is the negative logarithm of the molar antagonist concentration that doubles the agonist concentration needed for the same response. The low end stands for lower antagonist potency, the high end for higher antagonist potency. On to `COc1cc2nc(N(C)CCCCCCN(C)C(=O)c3cccc(CN(C)C)c3)nc(N)c2cc1OC`, for which the Ki was 1950 nM in assay [1], 741 nM in assay [4] and 0.324 nM in assay [5]. In assay [2], this molecule registered a pA2 of under 5. Besides, the Kb in assay [3] is 55 nM.

Source of the values: ChEMBL document CHEMBL1131296 (J Med Chem, 1998).
